From US8946430B2, “Quinolinone carboxamide inhibitors of endothelial lipase” (Bristol-Myers Squibb Company, priority 2011, dated 2015)

Target: T1, endothelial lipase (EL) (Homo sapiens, UniProt Q9Y5X9)
T1 construct: transformed by RAGE technology (Athersys) to overexpress endogenous EL; endogenous in cells; conditioned medium used as the enzyme source
T1 sequence (Q9Y5X9 21-500): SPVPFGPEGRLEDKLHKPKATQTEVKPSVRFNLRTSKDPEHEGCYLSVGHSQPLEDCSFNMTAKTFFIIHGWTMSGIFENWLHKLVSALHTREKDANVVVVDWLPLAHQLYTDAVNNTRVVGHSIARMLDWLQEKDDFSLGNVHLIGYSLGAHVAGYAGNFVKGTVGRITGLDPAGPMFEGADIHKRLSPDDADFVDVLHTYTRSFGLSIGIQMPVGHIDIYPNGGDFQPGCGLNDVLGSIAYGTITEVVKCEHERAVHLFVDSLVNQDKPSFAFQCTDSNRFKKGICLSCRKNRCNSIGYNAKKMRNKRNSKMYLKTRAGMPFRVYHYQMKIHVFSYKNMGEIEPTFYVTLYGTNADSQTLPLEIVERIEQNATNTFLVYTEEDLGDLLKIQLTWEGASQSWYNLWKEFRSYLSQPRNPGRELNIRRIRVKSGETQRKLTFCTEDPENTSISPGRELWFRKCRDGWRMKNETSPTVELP
Assay: Endothelial lipase (EL) enzymatic assay with fluorescent substrate A10070 in DMPG vesicles
Assay type: biochemical
Details: conditioned media from HT-1080 cells overexpressing endogenous EL; 20 min preincubation at 37° C.; FRET substrate A10070; read-out: HLE_EL_CRC IC50
Method: Endothelial lipase activity was measured using a fluorescent substrate, A10070, (Invitrogen, CA) doped into an artificial vesicle containing DMPG (Avanti Polar Lipids) as the excipient. Vesicles were prepared by combining 285 uL of 1 mM DMPG in a 1:1 mixture of MeOH and CHCl3 with 15 uL of 1 mM A10070 in a 1:1 mixture of MeOH and CHCl3. The mixture was dried under nitrogen and resuspended in 150 uL of 50 mM HEPES pH 8.0 buffer containing 100 mM NaCl and 0.2 mM EDTA. The sample was allowed to sit at rt for 15 min and then was sonicated 3×4 mins on ice with a Branson Sonicator using duty cycle 1. This preparation provides vesicles with a mole fraction of 0.05 for the FRET substrate.
The enzymatic assay was measured using white, opaque 96-well half area plates. Each well contained 60 uL of assay buffer (50 mM HEPES pH 8.0, 50 mM NaCl and 1 mM CaCl2) and 2 ul of a DMSO solution containing compound of interest. Conditioned media obtained from HT-1080 cells, which were transformed by RAGE technology (Athersys) to overexpress endogenous EL, was added and the reaction was allowed to incubate for 20 min at 37° C. with gentle agitation. The reaction was started by the addition of 20 uL of a 1:4 dilution of vesicles. The final total reaction volume was 100 uL. The reaction rates were measured on a Gemini plate reader with an excitation wavelength of 488 nm and a emission of 530 nm. Readings were taken every 20 seconds for 10 min with agitation between each reading. The slope of the linear portion of the readout was used to calculate the rate of the reaction.

Compound	IC50 [µM]
COC[C@H](Cc1ccccc1)NC(=O)c1c(O)c(=O)n(C)c2ccccc12 [Example 96, (S)-3-hydroxy-N-(1-methoxy-3-phenylpropan-2-yl)-1-methyl-2-oxo-1,2-dihydroquinoline-4-carboxamide]	8.53
Cn1c(=O)c(O)c(C(=O)NCc2csc(-c3ccccc3)n2)c2ccccc21 [Example 90, 3-hydroxy-1-methyl-2-oxo-N-((2-phenylthiazol-4-yl)methyl)-1,2-dihydroquinoline-4-carboxamide]	0.083
Cn1c(=O)c(O)c(C(=O)NCCCN2CCCC2=O)c2ccccc21 [Example 103, 3-hydroxy-1-methyl-2-oxo-N-(3-(2-oxopyrrolidin-1-yl)propyl)-1,2-dihydroquinoline-4-carboxamide]	9.36
Cn1c(=O)c(O)c(C(=O)NCCCOc2ccc(-c3ccccc3)cc2)c2ccccc21 [Example 133, N-(3-(biphenyl-4-yloxy)propyl)-3-hydroxy-1-methyl-2-oxo-1,2-dihydroquinoline-4-carboxamide]	0.01
Cn1c(=O)c(O)c(C(=O)NCc2ccccc2N2CCC(CO)CC2)c2ccccc21 [Example 141, 3-hydroxy-N-(2-(4-(hydroxymethyl)piperidin-1-yl)benzyl)-1-methyl-2-oxo-1,2-dihydroquinoline-4-carboxamide]	1.7
C[C@@H](NC(=O)c1c(O)c(=O)n(C)c2ccccc12)c1cccc(-c2ccccc2)c1 [Example 64, (R)-N-(1-(biphenyl-3-yl)ethyl)-3-hydroxy-1-methyl-2-oxo-1,2-dihydroquinoline-4-carboxamide]	0.064
Cn1c(=O)c(O)c(C(=O)NCc2ccccc2N2CCCC2)c2ccccc21 [Example 109, 3-hydroxy-1-methyl-2-oxo-N-(2-(pyrrolidin-1-yl)benzyl)-1,2-dihydroquinoline-4-carboxamide]	2.91
Cn1c(=O)c(O)c(C(=O)NCc2ccc(OC(F)(F)F)cc2)c2ccccc21 [Example 85, 3-hydroxy-1-methyl-2-oxo-N-(4-(trifluoromethoxy)benzyl)-1,2-dihydroquinoline-4-carboxamide]	0.043
O=C(NCC1CN(S(=O)(=O)c2ccc(Cl)c(Cl)c2)C1)c1c(O)c(=O)[nH]c2ccc(OC(F)(F)F)cc12 [Example 55, N-((1-(3,4-dichlorophenylsulfonyl)azetidin-3-yl)methyl)-3-hydroxy-2-oxo-6-(trifluoromethoxy)-1,2-dihydroquinoline-4-carboxamide]	0.025
O=C(NCCCc1c(Cl)cccc1Cl)c1c(O)c(=O)[nH]c2ccc(OC(F)(F)F)cc12 [Example 43, N-(3-(2,6-dichlorophenyl)propyl)-3-hydroxy-2-oxo-6-(trifluoromethoxy)-1,2-dihydroquinoline-4-carboxamide]	0.07
Cn1c(=O)c(O)c(C(=O)NCc2nc3ccccc3s2)c2ccccc21 [Example 107, N-(benzo[d]thiazol-2-ylmethyl)-3-hydroxy-1-methyl-2-oxo-1,2-dihydroquinoline-4-carboxamide]	11.1
Cn1c(=O)c(O)c(C(=O)NCc2cccc(OC(F)(F)F)c2)c2ccccc21 [Example 86, 3-hydroxy-1-methyl-2-oxo-N-(3-(trifluoromethoxy)benzyl)-1,2-dihydroquinoline-4-carboxamide]	0.037
Cn1c(=O)c(O)c(C(=O)NC(Cc2ccccc2)c2ccccc2)c2ccccc21 (stereo not shown) [Example 155, N-(1,2-diphenylethyl)-3-hydroxy-1-methyl-2-oxo-1,2-dihydroquinoline-4-carboxamide]	3.12
O=C(NCCCOc1ccccc1C(F)(F)F)c1c(O)c(=O)[nH]c2ccc(OC(F)(F)F)cc12 [Example 50, 3-hydroxy-2-oxo-6-(trifluoromethoxy)-N-(3-(2-(trifluoromethyl)phenoxy)propyl)-1,2-dihydroquinoline-4-carboxamide]	0.012
O=C(NCCCOc1c(Cl)cccc1Cl)c1c(O)c(=O)[nH]c2ccc(OC(F)(F)F)cc12 [Example 51, N-(3-(2,6-dichlorophenoxy)propyl)-3-hydroxy-2-oxo-6-(trifluoromethoxy)-1,2-dihydroquinoline-4-carboxamide]	0.04
Cn1c(=O)c(O)c(C(=O)NCc2cccc(-n3cccc3)c2)c2ccccc21 [Example 172, N-(3-(1H-pyrrol-1-yl)benzyl)-3-hydroxy-1-methyl-2-oxo-1,2-dihydroquinoline-4-carboxamide]	0.01
O=C(NCCCc1ccc(Cl)cc1Cl)c1c(O)c(=O)[nH]c2ccc(OC(F)(F)F)cc12 [Example 28, N-(3-(2,4-dichlorophenyl)propyl)-3-hydroxy-2-oxo-6-(trifluoromethoxy)-1,2-dihydroquinoline-4-carboxamide]	0.035
O=C(NCc1cccc(-c2ccc(Cl)cc2)c1)c1c(O)c(=O)[nH]c2ccc(OC(F)(F)F)cc12 [Example 42, N-((4′-chlorobiphenyl-3-yl)methyl)-3-hydroxy-2-oxo-6-(trifluoromethoxy)-1,2-dihydroquinoline-4-carboxamide]	0.096
Cn1c(=O)c(O)c(C(=O)NCc2ccc(C(F)(F)F)cc2)c2ccccc21 [Example 105, 3-hydroxy-1-methyl-2-oxo-N-(4-(trifluoromethyl)benzyl)-1,2-dihydroquinoline-4-carboxamide]	0.1

Further lines, results first:

IC50 [µM]	Compound
0.035	Cn1c(=O)c(O)c(C(=O)NCCCc2ccccc2Cl)c2ccccc21 [Example 27, N-(3-(2-chlorophenyl)propyl)-3-hydroxy-1-methyl-2-oxo-1,2-dihydroquinoline-4-carboxamide]
0.011	O=C(NCCCc1ccc(Cl)c(Cl)c1)c1c(O)c(=O)[nH]c2ccccc12 [Example 5, N-(3-(3,4-dichlorophenyl)propyl)-3-hydroxy-2-oxo-1,2-dihydroquinoline-4-carboxamide]
0.013	Cn1c(=O)c(O)c(C(=O)NCCCc2ccc(Cl)cc2Cl)c2ccccc21 [Example 2, N-(3-(2,4-Dichlorophenyl)propyl)-3-hydroxy-1-methyl-2-oxo-1,2-dihydroquinoline-4-carboxamide]
0.01	Cn1c(=O)c(O)c(C(=O)NCCCc2ccc(Cl)c(Cl)c2)c2ccccc21 [Example 1, N-(3-(3,4-dichlorophenyl)propyl)-3-hydroxy-1-methyl-2-oxo-1,2-dihydroquinoline-4-carboxamide]
0.049	COc1ccccc1OCCCNC(=O)c1c(O)c(=O)n(C)c2ccccc12 [Example 147, 3-hydroxy-N-(3-(2-methoxyphenoxy)propyl)-1-methyl-2-oxo-1,2-dihydroquinoline-4-carboxamide]
0.01	Cn1c(=O)c(O)c(C(=O)NCCCc2ccc(Cl)c(Cl)c2)c2cc(Cl)ccc21 [Example 3, 6-Chloro-N-(3-(3,4-dichlorophenyl)propyl)-3-hydroxy-1-methyl-2-oxo-1,2-dihydroquinoline-4-carboxamide]
0.084	Cn1c(=O)c(O)c(C(=O)NCCc2ccc(C(F)(F)F)cc2)c2ccccc21 [Example 92, 3-hydroxy-1-methyl-2-oxo-N-(4-(trifluoromethyl)phenethyl)-1,2-dihydroquinoline-4-carboxamide]
0.091	Cn1c(=O)c(O)c(C(=O)NCCOc2ccc(Cl)cc2)c2ccccc21 [Example 26, N-(2-(4-chlorophenoxy)ethyl)-3-hydroxy-1-methyl-2-oxo-1,2-dihydroquinoline-4-carboxamide]
0.075	Cn1c(=O)c(O)c(C(=O)NCCc2ccc(-c3ccc(F)cc3)cc2)c2ccccc21 [Example 151, N-(2-(4′-fluorobiphenyl-4-yl)ethyl)-3-hydroxy-1-methyl-2-oxo-1,2-dihydroquinoline-4-carboxamide]
